Measurements as given in patent US20170190691A1, “NOVEL 5-ACYLSULFANYL-HISTIDINE COMPOUNDS AS PRECURSORS OF THE CORRESPONDING 5-SULFANYLHISTIDINES AND THEIR DISULFIDES” (TETRAGEDRON, priority 2014, published 2017).

What was measured:
Type in all cases: physicochemical
[1] = Analytical monitoring by 1H NMR and HPLC-ELSD of the hydrolysis of compound 3 into compound 26 in the presence of a thiol (3-mercaptopropionic acid), D2O, 40° C.; conditions: 5 equivalents 3-mercaptopropionic acid
Procedure: b) Analytical monitoring by ^1H NMR of the hydrolysis of the 5-acylsulfanyl compound 3 into the compound L-5-sulfanyl-α,N,N,N(trimethyl)-histidine (Compound 26) in the presence of a thiol
Compound 3 is prepared and purified by column as described in Example 5. 100 mg (0.33 mmoles, 1 eq.) of compound 3 are dissolved in 2.4 mL of D2O. 172 mg of 3-mercaptopropionic acid (142 μL, 5 equivalents) are added, and the solution is heated at 40° C. The conversion is monitored by ^1H NMR and by HPLC-ELSD. The yield of hydrolysis of compound 3 is 90% after 3 h (monitored by ^1H NMR). Compound 26 is formed after 3 h 30 with a yield of 97% (HPLC-ELSD).

[2] = Hydrolysis of compound 3 in water at 90° C. in air, monitored by HPLC; conditions: after 7 h
Procedure: c) Preparation of the compound L-5-sulfanyl-α,N,N,N(trimethyl)-histidine (compound 26) by hydrolysis of the 5-acylsulfanyl compound 3
Compound 3 is prepared and purified by column as described in Example 5. 170 mg (0.6 mmoles) of compound 3 are dissolved in 10 mL of water, and the solution is heated at 90° C. in air for 7 h. The conversion is monitored by HPLC. The hydrolysis of compound 3 is complete after 7 h. The solution is evaporated to dryness. The residue is dissolved in a mixture of 5 mL of methanol and 93 mg (0.6 mmol) of dithiothreitol. After stirring for 4 h under an inert atmosphere, 2 mL of ethanol are added. A precipitate forms immediately, which is filtered and washed with ethanol (2×2 mL), then with ethyl ether (2×2 mL). After drying, 104 mg (72%) of L-5-sulfanyl-α,N,N,N(trimethyl)-histidine are obtained in the form of a beige powder.

[3] = Analytical monitoring by HPLC of the hydrolysis of compound 3 and oxidation in situ into compound 27, aqueous fraction at 40° C.; conditions: water; for % hydrolysis: HPLC
Procedure: e) Analytical monitoring by HPLC of the hydrolysis of the 5-acylsulfanyl compound 3 and oxidation in situ into compound 27
Compound 3 is prepared and purified by column as described in Example 5, using an ethyl acetate/ethanol gradient, followed by elution with water. The aqueous fraction containing the pure compound 3 is placed in a water bath at 40° C. and heated under stirring for two days. Samples are collected every hour, and the mixture is analyzed by HPLC.

[4] = Analytical monitoring by 1H NMR of the hydrolysis of compound 3 and oxidation in situ into compound 27, D2O at ambient temperature; conditions: for % hydrolysis: 1H NMR
Procedure: f) Analytical monitoring by ^1H NMR of the hydrolysis of the 5-acylsulfanyl compound 3 and oxidation in situ into compound 27
Compound 3 is prepared and purified by column as described in Example 5. 30 mg of compound 3 are dissolved in 600 μL of D2O, the solution is transferred to an NMR tube, which is stored at ambient temperature. The conversion is monitored by ^1H NMR.

yield of compound 26 formed from compound 3 ([1]; after 3 h 30, HPLC-ELSD): 97%
yield of hydrolysis of compound 3 ([1]; after 3 h, 1H NMR): 90%
hydrolysis of compound 3 (extent, in words) [2]: complete
hydrolysis of compound 3 (extent, in words) ([3]; after 2 days): nearly complete
yield of compound 27 from hydrolysis and in situ oxidation of compound 3 ([3]; after 2 days): 80%
% hydrolysis ([3]; t = 0 h): 0%
% hydrolysis ([3]; t = 2 j): 95%
% hydrolysis ([3]; t = 2 h): 7%
% hydrolysis ([3]; t = 4 h): 21%
% hydrolysis ([3]; t = 6 h): 38%
% hydrolysis ([3]; t = 8 h): 60%
% hydrolysis ([3]; t = 18 h): 85%
hydrolysis of compound 3 (extent, in words) ([4]; after 2 days): nearly complete
% hydrolysis ([4]; t = 0 h): 0%
% hydrolysis ([4]; t = 2 j): 86%
% hydrolysis ([4]; t = 2 h): 19%
% hydrolysis ([4]; t = 10 h): 26%
Structure (SMILES): CC(=O)Sc1nc[nH]c1C[C@@H](C(=O)[O-])[N+](C)(C)C [Compound 3, L-5-acetylsulfanyl-α,N,N,N(trimethyl)-histidine]
